{"source": "patent US6576620B2", "about": "“Method of identifying partial adenosine A1 receptor agonists” (CV Therapeutics, Inc., priority 1999, dated 2003)", "key": {"[1]": {"test_system": "guinea pig isolated heart", "assay": "A-V nodal conduction time / S-H interval, isolated perfused heart", "conditions": "for second-degree AV block: CPA at 30 nM, Compound 6 at all tested concentrations; for concentration causing an increase of the S-H interval by 13 msec: comparable submaximal responses", "protocol": "This method evaluates the potencies of compounds to cause coronary vasodilation (A2A AdoR response) and to prolong A-V nodal conduction time (A1 AdoR response).\nRats and guinea pigs, of either sex weighing from 230 to 260 grams and 300 to 350 grams, respectively, were used in this study. Animals were anesthetized by peritoneal injection of a cocktail containing ketamine and xylazine (ketamine 100 mg, xylazine 20 mg/ml). The chest was opened and the heart quickly removed. The heart was briefly rinse in ice-cold Krebs-Henseleit solution (see below), and the aorta cannulated. The heart was then perfused at a flow rate of 10 ml/min with modified Krebs-Henseleit (K-H) solution containing NaCl 117.9, KCl 4.5, CaCl2 2.5, MgSO4 1.18, KH2PO4 1.18, pyruvate 2.0 mmol. The K-H solution (pH 7.4) was gassed continuously with 95% O2 and 5% CO2 and warmed to 35±0.50° C. The heart was electrically paced at a fixed cycle length of […] (250 beats/min) using a bipolar electrode place on the left atrium. The electrical stimuli were generated by a Grass stimulator (Model S48, W. Warwick, R.I.) and delivered through a Stimuli Isolation Unit (Model SIU5, Astro-Med, Inc., NY) as square-wave pulses of 3-msec in duration and amplitude of at least twice the threshold intensity.\nA1 adenosine receptor-mediated depression of A-V nodal conduction time (negative dromotropic effect) was measured. Atrial and ventricular surface electrograms in rats and His bundle electrogram in guinea pigs, were recorded during constant atrial pacing.\nThe effects of compounds on coronary conductance (A2A effect) and atrioventricular conduction time or stimulus-to-His-bundle (S-H) interval (A1 effect) was then determined. Hearts were instrumented for continuous recording of coronary perfusion pressure (A2A response) and atrioventricular (A-V) conduction time or S-H interval (A1 response). In each experiment, concentration-response relationship of compounds to increase coronary conductance and to prolong A-V conduction time or S-H interval was determined. After control measurements of CPP and A-V conduction time or S-H interval were made, progressive higher concentrations of the compound studied was administered until maximal coronary vasodilation and A-V nodal conduction time or S-H interval prolongation were achieved.\nGuinea pigs (Hartley) of either sex weighing 300-350 g were anaesthetized with methoxyflurane and killed by decapitation. The chest was cut open and the heart was removed quickly and rinsed in ice-cold modified Krebs-Henseleit (K-H) solution. The contents of the modified K-H solution were (in mM): NaCl 117.9, KCl 4.8, CaCl2 2.5, MgSO2 1.18, KH2PO4 1.2, Na2 EDTA 0.5, ascorbic acid 0.14, dextrose 5.5, pyruvic acid (sodium salt) 2.0, and NaHCO3 25. The K-H solution was continuously gassed with 95% oxygen and 5% CO2, and the pH was adjusted to a value of 7.4. To perfuse the heart by the Langendorff method, the transected aorta was slid onto a glass cannula and secured by a ligature. Retrograde perfusion of the aorta was initiated immediately at a constant flow of 10 ml min-′ with modified K-H solution warmed to 36.0±0.5° C. A side port in the cannula was used to connect the perfusion line to a Gould pressure transducer for measurement of coronary perfusion pressure. Coronary perfusion pressure was continuously recorded on a strip chart (Gould RS3400, Cleveland, Ohio) throughout each experiment. Coronary conductance (in ml min^−1 mmHg^−1) was calculated as the ratio of coronary flow (10 ml min^−1) to perfusion pressure (mm Hg). To facilitate the exit of fluid from the left ventricle, the leaflets of the mitral valve were trimmed with fine spring-handled scissors. When appropriate, hearts were paced at a constant rate using external electrodes. […]"}, "[2]": {"test_system": "guinea pig isolated heart", "assay": "Spontaneous atrial rate, isolated heart", "conditions": "for atrial rate: maximal effect, controls 195±6 (Compound 6) and 198±15 (CPA)", "source_text": "Guinea pigs (Hartley) of either sex weighing 300-350 g were anaesthetized with methoxyflurane and killed by decapitation. The chest was cut open and the heart was removed quickly and rinsed in ice-cold modified Krebs-Henseleit (K-H) solution. The contents of the modified K-H solution were (in mM): NaCl 117.9, KCl 4.8, CaCl2 2.5, MgSO2 1.18, KH2PO4 1.2, Na2 EDTA 0.5, ascorbic acid 0.14, dextrose 5.5, pyruvic acid (sodium salt) 2.0, and NaHCO3 25. The K-H solution was continuously gassed with 95% oxygen and 5% CO2, and the pH was adjusted to a value of 7.4. To perfuse the heart by the Langendorff method, the transected aorta was slid onto a glass cannula and secured by a ligature. Retrograde perfusion of the aorta was initiated immediately at a constant flow of 10 ml min-′ with modified K-H solution warmed to 36.0±0.5° C. A side port in the cannula was used to connect the perfusion line to a Gould pressure transducer for measurement of coronary perfusion pressure. Coronary perfusion pressure was continuously recorded on a strip chart (Gould RS3400, Cleveland, Ohio) throughout each experiment. Coronary conductance (in ml min^−1 mmHg^−1) was calculated as the ratio of coronary flow (10 ml min^−1) to perfusion pressure (mm Hg). To facilitate the exit of fluid from the left ventricle, the leaflets of the mitral valve were trimmed with fine spring-handled scissors. When appropriate, hearts were paced at a constant rate using external electrodes. After completion of dissection and instrumentation (see below) for measurement of either atrial rate, stimulus-to-His bundle (S-H) interval, monophasic action potentials, or coronary perfusion pressure, each heart was allowed to equilibrate for 20-40 min before the administration of drug. Experimental interventions were always preceded and followed by control measurements. Criteria for exclusion of hearts from study were (1) a coronary perfusion pressure of less than 50 mm Hg, (2) absence of a stable coronary perfusion pressure during the equilibration period, and (3) inability to pace a heart at a constant rate throughout an experiment.\nTo measure spontaneous atrial rate in hearts that were not paced, a unipolar electrode was placed on the right atrium. A total of 10 atrial beats before, during, and after each intervention was recorded on chart paper moving at a rate of 50 mm per sec, and the average atrial rate at each time was determined from these records."}, "[3]": {"test_system": "guinea pig isolated heart", "assay": "Monophasic action potential duration, isolated heart", "protocol": "Signals were considered adequate if they were stable for at least 5-10 min and the amplitudes exceeded 10 mV. The data were digitized at 2 kHz by a DT-2801A digitizing board (Data Translation, Marlboro, Mass.) and were saved for analysis using the Snapshot data acquisition program (Snapshot Storage Scope, HEM Data Corp., Southfield, Mich.). The duration of the atrial and ventricular monophasic action potentials was measured from onset of depolarization to either 50 or 90% of repolarization."}}, "note": "Entries after “also recorded” stand apart in the source; their conditions may differ.", "data": [{"smiles": "CNC(=O)OC[C@H]1OC(n2cnc3c(N[C@@H]4CCOC4)ncnc32)[C@H](O)[C@@H]1O", "note": "(stereo partly drawn) [Compound 6 of Example 2, [(5-{6-[((3R)oxolan-3-yl)amino]purin-9-yl}(3 S,2R,4R)-3,4-dihydroxyoxolan-2-yl)methoxy]-N-methylcarboxamide]", "values": [{"measurement": "concentration at which effect on S-H interval reached a maximum", "setting": "[1]", "value": "30 to 100", "unit": "µM"}, {"measurement": "antagonism of S-H interval prolongation induced by CPA", "setting": "[1]; 10 μM compound", "value": "partially reversed the S-H interval prolongation induced by CPA"}, {"measurement": "increase of the S-H interval", "setting": "[1]; 10 μM compound", "value": 12, "unit": "ms"}, {"measurement": "increase of the S-H interval", "setting": "[1]; 10 μM compound in the presence of 50 nM CPX", "value": 4, "unit": "ms"}, {"measurement": "decrease of S-H interval", "setting": "[1]; 10 μM compound in the presence of iodotubercidin and EHNA", "value": 16, "unit": "ms"}, {"measurement": "S-H interval", "setting": "[1]; 10 μM compound in the presence of iodotubercidin and EHNA (80±6 msec before)", "value": "64 ± 2", "unit": "ms"}, {"measurement": "S-H interval", "setting": "[1]; 10 μM compound, control 46±2 msec", "value": "58 ± 2", "unit": "ms"}, {"measurement": "second-degree AV block", "setting": "[1]", "value": "did not cause second-degree A-V block in any heart"}, {"measurement": "EC50", "setting": "[1]; Cavia porcellus, electrically paced heart, read-out: EC50 to increase the S-H interval", "value": 3100, "unit": "nM"}, {"measurement": "concentration causing an increase of the S-H interval by 13 msec", "setting": "[1]", "value": "10,000 nM"}, {"measurement": "S-H interval at maximum effect", "setting": "[1]; control 45±1 msec", "value": "60 ± 3", "unit": "ms"}, {"measurement": "maximum increase of S-H interval", "setting": "[1]; electrically paced heart", "value": 33, "unit": "%"}, {"measurement": "adenosine concentration causing second-degree AV block", "setting": "[1]; presence of 4 μM Compound 6 of Example 2", "value": 8, "unit": "µM"}, {"measurement": "adenosine concentration causing second-degree AV block", "setting": "[1]; presence of 10 μM Compound 6 of Example 2", "value": 20, "unit": "µM"}, {"measurement": "atrial rate", "setting": "[2]", "value": "169±7", "unit": "beats per minute"}, {"measurement": "decrease of atrial rate", "setting": "[2]; spontaneously-beating hearts", "value": 13, "unit": "%"}, {"measurement": "effect on duration of ventricular or atrial monophasic action potential", "setting": "[3]", "value": "no significant effect"}, {"measurement": "duration of atrial monophasic action potential at 50% of repolarization", "setting": "[3]; 20 μM compound, control 41±3", "value": "41 ± 3", "unit": "ms"}, {"measurement": "duration of atrial monophasic action potential at 90% of repolarization", "setting": "[3]; 20 μM compound, control 66±4", "value": "74 ± 4", "unit": "ms"}, {"measurement": "duration of ventricular monophasic action potential at 90% of repolarization", "setting": "[3]; 20 μM compound, control 158±4", "value": "160 ± 7", "unit": "ms"}]}, {"smiles": "OC[C@H]1O[C@@H](n2cnc3c(NC4CCCC4)ncnc32)[C@H](O)[C@@H]1O", "note": "[CPA, N^6-cyclopentyladenosine, reference compound]", "values": [{"measurement": "S-H interval", "setting": "[1]; CPA 30 nM, control 44±1 msec", "value": "87 ± 2", "unit": "ms"}, {"measurement": "S-H interval", "setting": "[1]; CPA 10 μM as printed, control 42±1 msec", "value": "59 ± 4", "unit": "ms"}, {"measurement": "S-H interval", "setting": "[1]; CPA 15 μM as printed, control 42±1 msec", "value": "81 ± 6", "unit": "ms"}, {"measurement": "S-H interval", "setting": "[1]; CPA 20 μM as printed, control 42±1 msec", "value": "103 ± 8", "unit": "ms"}, {"measurement": "second-degree AV block", "setting": "[1]", "value": "second-degree AV block occurred in all hearts; also recorded: caused second-degree AV block in all hearts"}, {"measurement": "S-H interval Efficacy", "setting": "[1]; Table 5, 2759 = CVT-2759", "value": "Full (Potent)"}, {"measurement": "concentration causing an increase of the S-H interval by 13 msec", "setting": "[1]", "value": 10, "unit": "nM"}, {"measurement": "EC50", "setting": "[2]; Cavia porcellus, read-out: EC50 to decrease atrial rate", "value": 68, "unit": "nM"}, {"measurement": "atrial rate", "setting": "[2]", "value": "1±1", "unit": "beats per minute"}]}]}
